Results from patent publication US20260306460A1, “COMPOSITION FOR REMOVING AND INHIBITING SENESCENT CELLS, AND USES THEREOF” (LIFECEUTIX CO., LTD., priority 2023, published 2026).

How the values were obtained:
[1] = tested on: HMGN1 secreted from senescent A549 cells; experiment: HMGN1 secretion (ELISA) from senescent A549 cancer cells, Example 12; format: cell-based, human; conditions: senescent untreated = 100%; 30 μM; 90 μM for LX-305, 905, 1302, 1601, 1603, 2003, 2702, 2901, 3106; 270 μM for LX-1103, 2005, 2007;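 further: A549 cells made senescent by doxorubicin exposure, with DMSO-treated cells serving as the non-senescent control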
naturally aged mice = experiment: Anti-aging evaluation in naturally aged mice, Example 31, Table 55; format: in vivo, mouse; conditions: for Femur Ctsk mRNA / Kidney Agtr1a mRNA / Liver IL6 mRNA / Liver MMP3 mRNA / Liver p16 mRNA / Open Field Test Time in Center: untreated = 100%; for Heart Sur2a mRNA / Joint Col2a1 mRNA / Skin Col1a1 mRNA / Skin SDF1 mRNA: untreated = 1.0; for Muscle Mass: untreated 0.64 g; for Fat Mass: untreated 0.82 g; for Cataract incidence: untreated 83%;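 on all read-outs here: Vehicle-dosed control mice received solution alone at matching volume, values compare test-compound-treated aged mice against that control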
senescent foreskin cells = experiment: Survival of senescent human cells treated with supernatant (secreted fluid) from death-induced cells, Example 13; format: cell-based; conditions: Table 8; supernatant from dying senescent cells treated at 30, 90 or 270 μM (as Example 11); senescent treated cells
senescent A549 cells [2] = experiment: Viability of senescent A549 cancer cells (CellTiter-Glo), Example 12; format: cell-based, human; conditions: Homo sapiens, A549, 0 μM = 100, read-out: Survival
[3] = tested on: carbon tetrachloride-induced liver fibrosis mice; experiment: Carbon tetrachloride-induced liver fibrosis mice, Example 31, Table 57; format: in vivo, mouse; conditions: CCl4-induced liver fibrosis mice, untreated = 100%
Summary of the method: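 Mice with induced hepatic fibrosis received either the test compound or, as controls, an equal volume of vehicle solution alone. Once dosing ended, liver tissue was harvested and total RNA was isolated. cDNA was synthesized from this RNA, and quantitative RT-PCR was run on it to measure hepatic mRNA levels of the fibrosis- and senescence-related genes.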

[4] = tested on: bleomycin-induced pulmonary fibrosis mice; experiment: Bleomycin-induced pulmonary fibrosis mice, Example 31, Table 56; format: in vivo, mouse; conditions: untreated = 100%
Summary of the method: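 Mice with bleomycin-induced pulmonary fibrosis, untreated or given test compound, with vehicle-only controls. Lung tissue collected for RNA extraction and qRT-PCR analysis.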

senescent human cells = experiment: Viability of doxorubicin-induced senescent human cells (CellTiter-Glo), Example 11; format: cell-based; conditions: Homo sapiens, 0 μM = 100, read-out: Survival; for viability at […]: 3.3 μM
senescent A549 cells [5] = experiment: Viability of senescent A549 cells (CellTiter-Glo), Example 18, Table 15; conditions: doxorubicin-induced senescent A549 cells, 0 μM = 100%
senescent cells = experiment: Viability of senescent cells (CellTiter-Glo), Example 17, Table 13; conditions: doxorubicin-induced senescent cells, 0 μM = 100
[6] = tested on: HMGN1 secreted from senescent A549 cells; experiment: HMGN1 secretion (ELISA) from senescent A549 cells, Example 18, Table 14; format: cell-based, human; conditions: doxorubicin-senescent A549, without test compound (DMSO) = 100%; 30 μM (LX-5211, LX-5433, LX-6530, LX-6800, LX-9105, LX-9118, LX-9131, LX-9136, LX-9302, LX-9321, LX-9565, LX-9602 at 90 μM; LX-9336 at 2.4 mM)

| Molecule | HMGN1 [1] [%] | Femur Ctsk mRNA (naturally aged mice) [%] | Heart Sur2a mRNA (naturally aged mice) [fold] | Joint Col2a1 mRNA (naturally aged mice) [fold] | Kidney Agtr1a mRNA (naturally aged mice) [%] | Liver IL6 mRNA (naturally aged mice) [%] | Liver MMP3 mRNA (naturally aged mice) [%] | Liver p16 mRNA (naturally aged mice) [%] | Open Field Test Time in Center (naturally aged mice) [%] | Skin Col1a1 mRNA (naturally aged mice) [Fold] | Skin SDF1 mRNA (naturally aged mice) [fold] | Muscle Mass (naturally aged mice) [g] | Fat Mass (naturally aged mice) [g] | Cataract incidence (naturally aged mice) [%] | Survival (senescent foreskin cells) | Liver p16 mRNA [3] | Col1a1 mRNA [3] | Lung p16 mRNA [4] | Col1a1 mRNA [4] | Survival (%) (senescent A549 cells [5]; 1.1 μM) | also measured |
| --- | --- | --- | --- | --- | --- | --- | --- | --- | --- | --- | --- | --- | --- | --- | --- | --- | --- | --- | --- | --- | --- |
| Cc1nnc(-c2cc(C(=O)N3CCC(c4ccc(C#N)cc4)CC3)c(C)cc2C2CCC2)[nH]1 [LX-305] | 227 | 73 | 1.8 | 2.6 | 73 | 61 | 78 | 69 | 157 | 1.7 | 1.9 | 0.66 | 0.91 | 75 | 89.5 | 64 (±2.3) % | 70 (±3.2) % | 62 (±3.5) % | 73 (±4.1) % |  | viability at 1.1 µM (senescent A549 cells [2]; 1.1 μM): 99.2%; viability at […] (senescent A549 cells [2]; 3.3 μM): 93.8%; viability at 10 µM (senescent A549 cells [2]; 10 μM): 63.1%; viability at 30 µM (senescent A549 cells [2]; 30 μM): 41%; viability at 90 µM (senescent A549 cells [2]; 90 μM): 13.3%; viability at 1.1 µM (senescent human cells; 1.1 μM): 101%; viability at […] (senescent human cells): 97.2%; viability at 10 µM (senescent human cells; 10 μM): 91%; viability at 30 µM (senescent human cells; 30 μM): 78%; viability at 90 µM (senescent human cells; 90 μM): 23.2% |
| CCN(CC)C(=S)SSC(=S)N(CC)CC [LX-1601, Disulfiram] | 257 | 40 | 2.6 | 2.0 | 66 | 43 | 39 | 62 | 228 | 1.8 | 2.1 | 0.74 | 1.20 | 62 | 81.4 | 48 (±4.0) % | 50 (±2.0) % | 52 (±3.7) % | 63 (±4.6) % |  | viability at […] (senescent human cells): 90% |
| O=C(NCc1ccncc1)C12CC3CC(C1)CC(c1ccc(Cl)cc1)(C3)C2 [LX-3106, Opaganib] | 236 | 76 | 1.6 | 2.0 | 83 | 71 | 85 | 76 | 193 | 1.3 | 1.3 | 0.72 | 0.88 | 71 | 72.6 | 81 (±6.5) % | 71 (±5.4) % | 67 (±4.3) % | 77 (±3.7) % |  |  |
| C[C@H](N)C(=O)N1C[C@H](CCCB(O)O)[C@](N)(C(=O)O)C1 [LX-3107, Numidargistat] | 267 | 81 | 1.7 | 1.1 | 75 | 49 | 68 | 54 | 167 | 1.2 | 1.4 | 0.67 | 0.99 | 65 | 62.1 | 80 (±3.6) % | 69 (±8.0) % | 81 (±3.9) % | 68 (±5.1) % |  |  |
| CC(=O)N[C@@H](Cc1c[nH]c2ccccc12)C(=O)N[C@@H](CCC(=O)C=[N+]=[N-])C(=O)OC(C)C [LX-3201, Sirpiglenastat] | 309 | 80 | 2.1 | 1.7 | 78 | 71 | 64 | 80 | 171 | 1.6 | 2.0 | 0.71 | 1.06 | 76 | 55.2 | 71 (±9.4) % | 82 (±8.2) % | 77 (±5.9) % | 73 (±3.8) % |  |  |
| Cc1[nH]nc(C(F)(F)F)c1Cc1sc2c(c1C(=O)N1C[C@](C)(O)CO1)c(=O)n(C)c(=O)n2C(C)C [LX-3203] | 293 | 55 | 1.8 | 1.6 | 68 | 67 | 62 | 66 | 183 | 1.8 | 2.2 | 0.68 | 0.85 | 75 | 57.1 | 64 (±4.0) % | 66 (±4.5) % | 69 (±5.0) % | 64 (±4.5) % |  |  |
| CCc1nc(C(N)=O)c(Nc2ccc(N3CCC(N4CCN(C)CC4)CC3)c(OC)c2)nc1NC1CCOCC1 [LX-3303, Gilteritinib] | 239 | 76 | 1.9 | 2.1 | 69 | 83 | 73 | 63 | 186 | 1.2 | 1.7 | 0.72 | 1.08 | 61 | 53.5 | 62 (±4.9) % | 65 (±6.2) % | 68 (±6.9) % | 78 (±5.1) % |  |  |
| Alirocumab [LX-9562] |  |  |  |  |  |  |  |  |  |  |  |  |  |  |  |  |  |  |  | 94.1 | Survival (%) (senescent A549 cells [5]; 10 μM): 51.8%; Survival (%) (senescent A549 cells [5]; 30 μM): 2.1%; Survival (%) (senescent A549 cells [5]; […]): 89.1%; Survival (%) (senescent cells; 1.1 μM): 97.0%; Survival (%) (senescent cells; 10 μM): 45.4%; Survival (%) (senescent cells; 30 μM): 14.0%; Survival (%) (senescent cells; […]): 97.3%; HMGN1 [6]: 269% |
| Dazdotuftide [LX-9601] |  |  |  |  |  |  |  |  |  |  |  |  |  |  |  |  |  |  |  | 92.2 | Survival (%) (senescent A549 cells [5]; 10 μM): 69.1%; Survival (%) (senescent A549 cells [5]; 30 μM): 15.0%; Survival (%) (senescent A549 cells [5]; […]): 89.0%; Survival (%) (senescent cells; 1.1 μM): 96.9%; Survival (%) (senescent cells; 10 μM): 78.8%; Survival (%) (senescent cells; 30 μM): 30.2%; Survival (%) (senescent cells; […]): 89.8%; HMGN1 [6]: 209% |
| Evolocumab (antibody, chains of the INN, looked up, V domains shown, CAS 1256937-27-5) VH: EVQLVQSGAEVKKPGASVKVSCKASGYTLTSYGISWVRQAPGQGLEWMGWVSFYNGNTNYAQKLQGRGTMTTDPSTSTAYMELRSLRSDDTAVYYCARGYGMDVWGQGTTVTVSS VL: ESALTQPASVSGSPGQSITISCTGTSSDVGGYNSVSWYQQHPGKAPKLMIYEVSNRPSGVSNRFSGSKSGNTASLTISGLQAEDEADYYCNSYTSTSMVFGGGTKLTVL |  |  |  |  |  |  |  |  |  |  |  |  |  |  |  |  |  |  |  | 97.5 | Survival (%) (senescent A549 cells [5]; 10 μM): 43.2%; Survival (%) (senescent A549 cells [5]; 30 μM): 5.3%; Survival (%) (senescent cells; 1.1 μM): 93.9%; Survival (%) (senescent cells; 10 μM): 58.2%; Survival (%) (senescent cells; 30 μM): 18.5%; Survival (%) (senescent cells; […]): 87.6%; HMGN1 [6]: 291% |
